# Results from EPA's ToxValDB 9.5.
# Several values for one entry are separate records, joined by “and”; a condition that tells them apart may be missing. Identical values can stand only once.
# Legend:
# Rattus norvegicus [1] = conditions: for LD50 / LC50: acute
# Oryctolagus sp. = conditions: for LD50: acute, dermal; for NOAEL: reproduction developmental, duration: 14 days, oral, gavage
# Rattus norvegicus [2] = conditions: chronic; duration: 2 years; oral; diet; M/F; neurotoxicity
# Rattus norvegicus [3] = conditions: short-term, duration: 28 days, oral, gavage, M/F, Wistar
# Rattus norvegicus [4] = conditions: for LEL: uterotrophic, duration: 3 days, injection, subcutaneous, Active
# Rattus norvegicus [5] = conditions: developmental; oral; gavage; M; Sprague-Dawley; generation: F1; F1: Testosterone (Testes)
# [6] = subchronic, duration: 13 weeks, oral, diet, ICR
# [7] = subchronic, duration: 13 weeks, oral, diet, Wistar
# [8] = reproduction developmental, duration: 5 days, inhalation, CD1, generation: F0
# [9] = chronic, duration: 693 days, oral, diet, Sprague-Dawley
# [10] = reproduction developmental, duration: 94 days, oral, diet, Sprague-Dawley, generation: F0
# [11] = subchronic, duration: 13 weeks, oral, diet, Sprague-Dawley
# [12] = acute, injection, Intraperitoneal
# [13] = Hershberger, duration: 10 days, oral, gavage, Sprague-Dawley, active + Antiandrogenic + anti-androgenic
compound,measurement,setting,value
CN=C=O [Methyl isocyanate],LOAEL,"Mus musculus; developmental, duration: 6 hours, inhalation, Swiss",< 2.33 mg/m3
same,NOAEL,"Mus musculus; reproduction developmental, duration: 6 hours, inhalation, F, Swiss",> 7 mg/m3
same,NOAEL,"Mus musculus; reproduction developmental, duration: 6 hours, inhalation, Swiss, generation: F0",> 7 mg/m3
same,LOAEL,"Rattus norvegicus [1]; developmental, duration: 0.5 hours, inhalation",< 0.495 mg/m3
same,NOAEL,"Rattus norvegicus [1]; reproduction developmental, duration: 8 minutes, inhalation, whole body, Wistar, generation: F0",> 3140 mg/m3
same,LOAEL,"Rattus norvegicus [1]; reproduction developmental, duration: 0.5 hours, inhalation, F",< 0.495 mg/m3
same,NOAEL,"Rattus norvegicus [1]; reproduction developmental, duration: 0.5 hours, inhalation, generation: F0",> 0.824 mg/m3
[Cl][Zn][Cl] [Zinc chloride],LD50,"Mus musculus; acute, oral, gavage, Swiss",1260 mg/kg and 605 mg/kg
same,NOAEL,"Mus musculus; developmental, duration: 18 days, injection, Intraperitoneal, CF1",12.5 mg/kg-day
same,NOAEL,"Mus musculus; reproduction developmental, duration: 18 days, injection, Intraperitoneal, F, CF1",12.5 mg/kg-day
same,LOAEL,Mus musculus; [6],5910 mg/kg-day
same,NOAEL,Mus musculus; [6],591 mg/kg-day
same,LOAEL,"Rattus norvegicus [1]; short-term, duration: 4 weeks, oral, drinking water, Wistar",12 mg/kg-day
same,LOAEL,Rattus norvegicus [1]; [7],2880 mg/kg-day
same,NOAEL,Rattus norvegicus [1]; [7],288 mg/kg-day
CN(C)C(=S)SSC(=S)N(C)C [Bis(dimethylaminothiocarbonyl) disulfide],LD50,Oryctolagus sp.,≥ 2000 mg/kg
same,LD50,Oryctolagus sp.; New Zealand,> 7940 mg/kg
same,NOAEL,"Oryctolagus sp.; F, New Zealand",5 mg/kg-day
same,NOAEL,"Oryctolagus sp.; New Zealand, generation: F1",5 mg/kg-day
same,LD50,Rattus norvegicus [1]; dermal,> 5000 mg/kg
same,LC50,"Rattus norvegicus [1]; inhalation, particle",> 6.22 µg/mL
same,LD50,"Rattus norvegicus [1]; oral, gavage, Sprague-Dawley",1080 mg/kg
same,NOAEL,"Rattus norvegicus [1]; reproduction developmental, duration: 10 days, oral, gavage, Crl:CD1, generation: F1",7.5 mg/kg-day
same,NOAEL,"Rattus norvegicus [1]; reproduction developmental, duration: 10 days, oral, gavage, F",> 30 mg/kg-day
same,NOAEL,"Rattus norvegicus [1]; reproduction developmental, duration: 10 days, oral, gavage, F, Crl:CD1",7.5 mg/kg-day
same,NOAEL,"Rattus norvegicus [1]; reproduction developmental, duration: 10 days, oral, gavage, generation: F1",7.5 mg/kg-day
same,NOAEL,"Rattus norvegicus [1]; reproduction developmental, duration: 81 days, oral, diet, generation: F1",60 ppm and 180 ppm
same,NOAEL,"Rattus norvegicus [1]; subchronic, duration: 90 days, oral, diet, F",2.5 mg/kg-day
same,NOAEL,"Rattus norvegicus [1]; subchronic, duration: 90 days, oral, diet, M",2.5 mg/kg-day
same,LEL,Rattus norvegicus [2],15 mg/kg-day
same,NOEL,Rattus norvegicus [2],5 mg/kg-day
"O=c1n(CC2CO2)c(=O)n(CC2CO2)c(=O)n1CC1CO1 (stereo unspecified) [Tris(2,3-epoxypropyl)isocyanurate]",LC50,"Mus musculus; acute, inhalation, particle, CD1",2 µg/mL
same,LOAEL,Mus musculus; [8],> 8 mg/m3
same,NOAEL,Mus musculus; [8],> 8 mg/m3
same,LC50,"Rattus norvegicus [1]; Inhalation, TIF: RAIF (SPF)",> 300 mg/m3
same,LC50,"Rattus norvegicus [1]; Inhalation, Tif.RAIF (SPF)",650 mg/m3
same,LD50,"Rattus norvegicus [1]; dermal, Sprague-Dawley",> 3100 mg/kg
same,LD50,"Rattus norvegicus [1]; dermal, semiocclusive, Sprague-Dawley",> 2000 mg/kg
same,LD50,"Rattus norvegicus [1]; dermal, semiocclusive, TIF. RAIF (SPF)",> 2000 mg/kg
same,LC50,"Rattus norvegicus [1]; inhalation, particle, Wistar",> 4.16 µg/mL
same,LD50,"Rattus norvegicus [1]; oral, gavage, Sprague-Dawley",447 mg/kg
same,LD50,"Rattus norvegicus [1]; oral, gavage, TIF: RAIF (SPF)",305 mg/kg
same,LOAEL,Rattus norvegicus [1]; [9],> 100 mg/kg-day
same,NOAEL,Rattus norvegicus [1]; [9],100 mg/kg-day
same,LOAEL,Rattus norvegicus [1]; [10],> 100 mg/kg-day
same,NOAEL,Rattus norvegicus [1]; [10],30 mg/kg-day
same,LOAEL,Rattus norvegicus [1]; [11],> 100 mg/kg-day
same,NOAEL,Rattus norvegicus [1]; [11],30 mg/kg-day
COP(=O)(OC)O/C(=C\Cl)c1cc(Cl)c(Cl)cc1Cl [Z-Tetrachlorvinphos],NOEL,"Rattus norvegicus [3]; Deaths + Clinical Observation: Soiled perineal region + Body Weight Changes: decrease + Blood Chemistry: AST decrease, gamma-GTP increase, …",< 10 mg/kg-day
same,NOEL,"Rattus norvegicus [3]; Deaths + Clinical Observation: Soiled perineal region + Body Weight Changes: decrease + Hematology: RBC decrease, HGB decrease, HCT decrease…",< 10 mg/kg-day
same,NOEL,"Rattus norvegicus [4]; Hershberger, duration: 10 days, oral, gavage, Sprague-Dawley, inactive + Negative + Negative + neither + negative",350 mg/kg-day
CCC(C)(C)c1ccc(O)cc1 [4-(2-Methylbutan-2-yl)phenol],LEL,Rattus norvegicus [4],200 mg/kg-day and 202 mg/kg-day
CC/C(=C(\c1ccc(O)cc1)c1ccc(OCCN(C)C)cc1)c1ccccc1 [(Z)-4-Hydroxytamoxifen],LEL,Rattus norvegicus [4],0.00016 mg/day
c1ccc2cc3c(ccc4ccccc43)cc2c1 [Benz(a)anthracene],LEL,Rattus norvegicus [4],1 mg/kg-day
"CC(C)(C)c1cc(C(C)(C)c2ccc(O)c(C(C)(C)C)c2)ccc1O [4,4'-Propane-2,2-diylbis(2-tert-butylphenol)]",LD50,Mus musculus; [12],40 mg/kg
same,LD50,"Mus musculus; acute, injection, intraperitoneal",40 mg/kg
CC(C)CCCCCCOC(=O)c1ccccc1C(=O)OCCCCCCC(C)C [Diisononyl phthalate],LOEL,Rattus norvegicus [4]; [13],500 mg/kg-day
same,NOEL,Rattus norvegicus [4]; [13],100 mg/kg-day
same,NOEL,Rattus norvegicus [5],750 mg/kg-day
NC(CO)(CO)CO [Tromethamine],LD50,"Mus musculus; acute, dermal",> 1000 mg/kg
same,LD50,Mus musculus; [12],3350 mg/kg
same,LD50,"Mus musculus; acute, injection, intravenous",6100 mg/kg
same,LD50,"Mus musculus; acute, oral, gavage, Swiss",> 3000 mg/kg
same,LD50,Rattus norvegicus [1]; dermal,> 1000 mg/kg
same,LD50,"Rattus norvegicus [1]; injection, intravenous",6000 mg/kg
same,LD50,"Rattus norvegicus [1]; oral, gavage, Wistar",> 3000 mg/kg
same,NOAEL,"Rattus norvegicus [1]; reproduction developmental, duration: 29 days, oral, gavage, Crl:CD(SD), generation: F0",1000 mg/kg-day
same,NOAEL,"Rattus norvegicus [1]; reproduction developmental, duration: 29 days, oral, gavage, Crl:CD(SD), generation: F1",1000 mg/kg-day
same,NOAEL,"Rattus norvegicus [1]; reproduction developmental, duration: 29 days, oral, gavage, generation: F0",1000 mg/kg-day
same,NOAEL,"Rattus norvegicus [1]; reproduction developmental, duration: 29 days, oral, gavage, generation: F1",1000 mg/kg-day
same,NOAEL,"Rattus norvegicus [1]; short-term, duration: 20 days, injection, intravenous, Sprague-Dawley",500 mg/kg-day
